Laboratory results as given in ChEMBL document CHEMBL3525998, “Metabolism of saikosaponin a in rats: diverse oxidations on the aglycone moiety in liver and intestine in addition to hydrolysis of glycosidic bonds” (Drug Metab Dispos, 2013).

Experiments:
Type in all cases: ADME, organism-based
[1] = Drug excretion in Sprague-Dawley rat bile at 50 mg/kg, po administered through gavage by LC-DAD-IT-TOF-MS analysis; parameters: dose 50 mg/kg, route oral; conditions: in vivo
[2] = Drug recovery in po dosed rat excreted feces measured over 0 to 24 hrs after drug administration by HPLC analysis relative to starting drug dose; conditions: faeces, read-out: Drug recovery
[3] = Drug excretion in Sprague-Dawley rat bile assessed as metabolite delta1-saikogenin f level at 15 mg/kg, iv by LC-DAD-IT-TOF-MS analysis; parameters: dose 15 mg/kg, route intravenous; conditions: in vivo
[4] = Drug excretion in Sprague-Dawley rat urine assessed as metabolite delta1-saikogenin f level at 15 mg/kg, iv by LC-DAD-IT-TOF-MS analysis; parameters: dose 15 mg/kg, route intravenous; conditions: in vivo
[5] = Drug excretion in Sprague-Dawley rat feces assessed as metabolite delta1-saikogenin f level at 15 mg/kg, iv by LC-DAD-IT-TOF-MS analysis; parameters: dose 15 mg/kg, route intravenous; conditions: in vivo
Plasma [6] = assay: Drug metabolism in Sprague-Dawley rat plasma assessed as metabolite saikogenin f-27-oic acid formation at 15 mg/kg, iv by LC-DAD-IT-TOF-MS analysis; parameters: dose 15 mg/kg, route intravenous; conditions: in vivo
[7] = Drug excretion in Sprague-Dawley rat bile assessed as metabolite saikogenin f-27-oic acid level at 15 mg/kg, iv by LC-DAD-IT-TOF-MS analysis; parameters: dose 15 mg/kg, route intravenous; conditions: in vivo
[8] = Drug excretion in Sprague-Dawley rat feces assessed as metabolite saikogenin f-27-oic acid level at 15 mg/kg, iv by LC-DAD-IT-TOF-MS analysis; parameters: dose 15 mg/kg, route intravenous; conditions: in vivo
[9] = Drug excretion in Sprague-Dawley rat feces at 50 mg/kg, po administered through gavage by LC-DAD-IT-TOF-MS analysis; parameters: dose 50 mg/kg, route oral; conditions: in vivo
Plasma [10] = assay: Drug metabolism in Sprague-Dawley rat plasma assessed as metabolite hydroxysaikosaponin a formation at 50 mg/kg, po administered through gavage by LC-DAD-IT-TOF-MS analysis; parameters: dose 50 mg/kg, route oral; conditions: in vivo
[11] = Drug excretion in Sprague-Dawley rat bile assessed as metabolite hydroxysaikosaponin a level at 50 mg/kg, po administered through gavage by LC-DAD-IT-TOF-MS analysis; parameters: dose 50 mg/kg, route oral; conditions: in vivo
[12] = Drug excretion in Sprague-Dawley rat urine assessed as metabolite hydroxysaikosaponin a level at 50 mg/kg, po administered through gavage by LC-DAD-IT-TOF-MS analysis; parameters: dose 50 mg/kg, route oral; conditions: in vivo
[13] = Drug excretion in Sprague-Dawley rat feces assessed as metabolite hydroxysaikosaponin a level at 50 mg/kg, po administered through gavage by LC-DAD-IT-TOF-MS analysis; parameters: dose 50 mg/kg, route oral; conditions: in vivo
Plasma [14] = assay: Drug metabolism in Sprague-Dawley rat plasma assessed as metabolite prosaikogenin f formation at 50 mg/kg, po administered through gavage by LC-DAD-IT-TOF-MS analysis; parameters: dose 50 mg/kg, route oral; conditions: in vivo
[15] = Drug excretion in Sprague-Dawley rat urine assessed as metabolite prosaikogenin f level at 50 mg/kg, po administered through gavage by LC-DAD-IT-TOF-MS analysis; parameters: dose 50 mg/kg, route oral; conditions: in vivo
[16] = Drug excretion in Sprague-Dawley rat feces assessed as metabolite prosaikogenin f level at 50 mg/kg, po administered through gavage by LC-DAD-IT-TOF-MS analysis; parameters: dose 50 mg/kg, route oral; conditions: in vivo
[17] = Drug excretion in Sprague-Dawley rat feces assessed as metabolite saikogenin f level at 50 mg/kg, po administered through gavage by LC-DAD-IT-TOF-MS analysis; parameters: dose 50 mg/kg, route oral; conditions: in vivo
[18] = Drug excretion in Sprague-Dawley rat bile assessed as metabolite 3-keto-saikogenin f level at 50 mg/kg, po administered through gavage by LC-DAD-IT-TOF-MS analysis; parameters: dose 50 mg/kg, route oral; conditions: in vivo
[19] = Drug excretion in Sprague-Dawley rat urine assessed as metabolite 3-keto-saikogenin f level at 50 mg/kg, po administered through gavage by LC-DAD-IT-TOF-MS analysis; parameters: dose 50 mg/kg, route oral; conditions: in vivo
[20] = Drug excretion in Sprague-Dawley rat feces assessed as metabolite 3-keto-saikogenin f level at 50 mg/kg, po administered through gavage by LC-DAD-IT-TOF-MS analysis; parameters: dose 50 mg/kg, route oral; conditions: in vivo
Plasma [21] = assay: Drug metabolism in Sprague-Dawley rat plasma assessed as metabolite delta1-saikogenin f formation at 50 mg/kg, po administered through gavage by LC-DAD-IT-TOF-MS analysis; parameters: dose 50 mg/kg, route oral; conditions: in vivo
[22] = Drug excretion in Sprague-Dawley rat bile assessed as metabolite delta1-saikogenin f level at 50 mg/kg, po administered through gavage by LC-DAD-IT-TOF-MS analysis; parameters: dose 50 mg/kg, route oral; conditions: in vivo
Plasma [23] = assay: Drug metabolism in Sprague-Dawley rat plasma assessed as metabolite saikogenin f-27-oic acid formation at 50 mg/kg, po administered through gavage by LC-DAD-IT-TOF-MS analysis; parameters: dose 50 mg/kg, route oral; conditions: in vivo
[24] = Drug excretion in Sprague-Dawley rat urine assessed as metabolite saikogenin f-27-oic acid level at 50 mg/kg, po administered through gavage by LC-DAD-IT-TOF-MS analysis; parameters: dose 50 mg/kg, route oral; conditions: in vivo
Plasma [25] = assay: Drug uptake in Sprague-Dawley rat plasma at 15 mg/kg, iv by LC-DAD-IT-TOF-MS analysis; parameters: dose 15 mg/kg, route intravenous; conditions: in vivo
[26] = Drug excretion in Sprague-Dawley rat bile at 15 mg/kg, iv by LC-DAD-IT-TOF-MS analysis; parameters: dose 15 mg/kg, route intravenous; conditions: in vivo
[27] = Drug excretion in Sprague-Dawley rat urine at 15 mg/kg, iv by LC-DAD-IT-TOF-MS analysis; parameters: dose 15 mg/kg, route intravenous; conditions: in vivo
Plasma [28] = assay: Drug metabolism in Sprague-Dawley rat plasma assessed as metabolite hydroxysaikosaponin a formation at 15 mg/kg, iv by LC-DAD-IT-TOF-MS analysis; parameters: dose 15 mg/kg, route intravenous; conditions: in vivo
[29] = Drug excretion in Sprague-Dawley rat bile assessed as metabolite hydroxysaikosaponin a level at 15 mg/kg, iv by LC-DAD-IT-TOF-MS analysis; parameters: dose 15 mg/kg, route intravenous; conditions: in vivo
[30] = Drug excretion in Sprague-Dawley rat feces assessed as metabolite hydroxysaikosaponin a level at 15 mg/kg, iv by LC-DAD-IT-TOF-MS analysis; parameters: dose 15 mg/kg, route intravenous; conditions: in vivo
[31] = Drug excretion in Sprague-Dawley rat bile assessed as metabolite prosaikogenin f level at 15 mg/kg, iv by LC-DAD-IT-TOF-MS analysis; parameters: dose 15 mg/kg, route intravenous; conditions: in vivo
[32] = Drug excretion in Sprague-Dawley rat urine assessed as metabolite prosaikogenin f level at 15 mg/kg, iv by LC-DAD-IT-TOF-MS analysis; parameters: dose 15 mg/kg, route intravenous; conditions: in vivo
Plasma [33] = assay: Drug metabolism in Sprague-Dawley rat plasma assessed as metabolite saikogenin f formation at 15 mg/kg, iv by LC-DAD-IT-TOF-MS analysis; parameters: dose 15 mg/kg, route intravenous; conditions: in vivo
[34] = Drug excretion in Sprague-Dawley rat bile assessed as metabolite saikogenin f level at 15 mg/kg, iv by LC-DAD-IT-TOF-MS analysis; parameters: dose 15 mg/kg, route intravenous; conditions: in vivo
[35] = Drug excretion in Sprague-Dawley rat urine assessed as metabolite saikogenin f level at 15 mg/kg, iv by LC-DAD-IT-TOF-MS analysis; parameters: dose 15 mg/kg, route intravenous; conditions: in vivo
[36] = Drug excretion in Sprague-Dawley rat feces assessed as metabolite saikogenin f level at 15 mg/kg, iv by LC-DAD-IT-TOF-MS analysis; parameters: dose 15 mg/kg, route intravenous; conditions: in vivo
Plasma [37] = assay: Drug metabolism in Sprague-Dawley rat plasma assessed as metabolite 3-keto-saikogenin f formation at 15 mg/kg, iv by LC-DAD-IT-TOF-MS analysis; parameters: dose 15 mg/kg, route intravenous; conditions: in vivo
[38] = Drug excretion in Sprague-Dawley rat urine assessed as metabolite 3-keto-saikogenin f level at 15 mg/kg, iv by LC-DAD-IT-TOF-MS analysis; parameters: dose 15 mg/kg, route intravenous; conditions: in vivo

C[C@H]1O[C@@H](O[C@H]2CC[C@@]3(C)[C@@H](CC[C@]4(C)[C@@H]3C=C[C@]35OC[C@@]6(CCC(C)(C)C[C@H]63)[C@@H](O)C[C@]54C)[C@]2(C)CO)[C@H](O)[C@@H](O[C@@H]2O[C@H](CO)[C@@H](O)[C@H](O)[C@H]2O)[C@H]1O [SAIKOSAPONIN A]
Drug excretion [1]: metabolite_detected
dose excreted [2]: > 50%
Drug excretion [3]: metabolite_not_detected
Drug excretion [4]: metabolite_not_detected
Drug excretion [5]: metabolite_not_detected
Drug metabolism (Plasma [6]): metabolite_not_detected
Drug excretion [7]: metabolite_not_detected
Drug excretion [8]: metabolite_detected
Drug excretion [9]: metabolite_detected
Drug metabolism (Plasma [10]): metabolite_not_detected
Drug excretion [11]: metabolite_not_detected
Drug excretion [12]: metabolite_not_detected
Drug excretion [13]: metabolite_not_detected
Drug metabolism (Plasma [14]): metabolite_detected
Drug excretion [15]: metabolite_detected
Drug excretion [16]: metabolite_detected
Drug excretion [17]: metabolite_detected
Drug excretion [18]: metabolite_not_detected
Drug excretion [19]: metabolite_detected
Drug excretion [20]: metabolite_detected
Drug metabolism (Plasma [21]): metabolite_not_detected
Drug excretion [22]: metabolite_not_detected
Drug metabolism (Plasma [23]): metabolite_not_detected
Drug excretion [24]: metabolite_detected
Drug uptake (Plasma [25]): Active
Drug excretion [26]: metabolite_detected
Drug excretion [27]: metabolite_detected
Drug metabolism (Plasma [28]): metabolite_not_detected
Drug excretion [29]: metabolite_detected
Drug excretion [30]: metabolite_not_detected
Drug excretion [31]: metabolite_detected
Drug excretion [32]: metabolite_detected
Drug metabolism (Plasma [33]): metabolite_not_detected
Drug excretion [34]: metabolite_not_detected
Drug excretion [35]: metabolite_not_detected
Drug excretion [36]: metabolite_detected
Drug metabolism (Plasma [37]): metabolite_not_detected
Drug excretion [38]: metabolite_not_detected
